For series [1], the system named is patients in need thereof. In words: Example 6: two randomized, double-blinded placebo controlled studies, daily and on demand dosing. Type of series: in vivo, human. The procedure:
In two randomized, double-blinded placebo controlled studies, Compound (I) was administered to patients in need thereof at a range of doses, in both daily dosing and for on demand therapy, for sexual encounters and intercourse in the home setting.
Enhanced erectile function was determined by the International Index of Erectile Function (IIEF) (Rosen et al., Urology, 49, pp. 822-830 (1997)), diaries of sexual attempts, and a global satisfaction question.

In series [2] the test system is patients with male erectile dysfunction. In words: Example 7: placebo-controlled on demand study in male erectile dysfunction (IIEF, SEP, safety). To be noted: for patients who rated ability to maintain an erection (IIEF Question 4) as almost always or always: at endpoint. Type of series: in vivo, human. The procedure:
A third clinical study was a randomized, double-blind, placebo-controlled study of Compound (I) administered “on demand” to patients with male erectile dysfunction. Compound (I) was administered over a period of eight weeks in the treatment of male erectile dysfunction (ED). Erectile dysfunction (ED) is defined as the persistent inability to attain and/or maintain an erection adequate to permit satisfactory sexual performance.
The study population consisted of 212 men, at least 18 years of age, with mild to severe erectile dysfunction. […] Treatment with all nitrates, azole antifungals (e.g., ketoconazole or itraconazole), warfarin, erythromycin, or antiandrogens was not allowed at any time during the study. No other approved or experimental medications, treatments, or devices used to treat ED were allowed. Forty-one subjects were administered a placebo.
The two primary efficacy variables were the ability of a subject to penetrate their partner and their ability to maintain an erection during intercourse, as measured by the International Index of Erectile Function (IIEF). The IIEF Questionnaire contains fifteen questions, and is a brief, reliable measure of erectile function. See R. C. Rosen et al., Urology, 49, pp. 822-830 (1997)
Secondary efficacy variables were IIEF domain scores for erectile function, orgasmic function, sexual desire, intercourse satisfaction, and overall satisfaction; the patient's ability to achieve an erection, ability to insert their penis into their partner's vagina, completion of intercourse with ejaculation, satisfaction with the hardness of their erection, and overall satisfaction, all as measured by the Sexual Encounter Profile (SEP) diary; and a global assessment question asked at the end of the treatment period. […]
The safety aspect of the study included all enrolled subjects, and was assessed by evaluating all reported adverse events, and changes in clinical laboratory values, vital signs, physical examination results, and electrocardiogram results.

Series [3] relates to healthy male volunteers. Put plainly: Example 5: drug interaction study of Compound (I) with short-acting nitrates (hemodynamic effects). Type of series: in vivo, human. As to the method:
On the sixth or seventh day, the subjects received sublingual nitroglycerin (0.4 mg) while supine on a tilt table. […] The subjects were tilted to 70° head-up every 5 minutes for a total of 30 minutes with measurement of blood pressure and heart rate. There were no discontinuations among the twenty-two healthy male subjects (ages 19 to 60 years old) that entered this study.

For series [4], the system named is patients taking organic nitrates. To be noted: combination with organic nitrates; cited from earlier work.
Series [5] relates to PDEl. The settings on record: package insert; cited from earlier work.
Setting [6] is: 10 mg daily for seven days, sublingual nitroglycerin 0.4 mg.

Turning to `CN1CC(=O)N2[C@H](c3ccc4c(c3)OCO4)c3[nH]c4ccccc4c3C[C@@H]2C1=O` [Compound (I), (6R,12aR)-2,3,6,7,12,12a-hexahydro-2-methyl-6-(3,4-methylenedioxyphenyl)-pyrazino[2′,1′:6,1]pyrido[3,4-b]indole-1,4-dione], in series [1] (10 mg dose), the “efficacy for sexual encounters and intercourse” value is listed as “fully efficacious”; the side effects entry is recorded as “minimal side effects”. In addition, in series [1] (doses from 5 to 20 mg), the “efficacy for sexual encounters and intercourse” value is “efficacious”; the flushing entry is “less than 1%”. The “percentage of successful intercourse attempts including ability to attain and maintain an erection” value in series [1] (on demand and daily dosing regimens) is given as “significantly improved”. In addition, the “patients who rated ability to maintain an erection (IIEF Question 4) as almost always or always” value in series [2] (10 mg on demand) is given as 39.0%. Moreover, the “patients who rated ability to maintain an erection (IIEF Question 4) as almost always or always” value in series [2] (25 mg on demand) is on record as 69.0%. Besides, the “incidence of treatment-emergent adverse events” value in series [2] (2 to 25 mg on demand) was “appeared related to dose”. The “changes in laboratory safety assessments or 12-lead ECGs” value in series [3] (10 mg daily for seven days) is “no Compound (I) changes”. In addition, in series [3] (setting [6]), the “effect on mean maximal nitroglycerin-induced decrease in systolic blood pressure” value was “minimal, if any, effect” and the “effect on mean systolic blood pressure” value is given as “minimal, if any, effect”. In addition, the “impact on systolic blood pressure” value in series [3] (administered in conjunction with organic nitrates, human clinical studies) is “minimal impact”.
`CCCc1nn(C)c2c(=O)[nH]c(-c3cc(S(=O)(=O)N4CCN(C)CC4)ccc3OCC)nc12` [sildenafil]: the “blood pressure effect in patients taking organic nitrates” value in series [4] is “clinically significant drop in blood pressure”. Also, in series [5], the “more potent inhibitor of PDE5 than PDE1” value is listed as “greater than 80 fold”.

These data come from patent US6943166B1, “Compositions comprising phosphodiesterase inhabitors for the treatment of sexual disfunction” (Lilly ICOS LLC., priority 1999, dated 2005).
